Data on 35 compounds can be found in ChEMBL document CHEMBL5506042, “Discovery of the Clinical Candidate IDOR-1117-2520: A Potent and Selective Antagonist of CCR6 for Autoimmune Diseases” (J Med Chem, 2024).

Bounds are passed on as bounds.

Series [1] in a line: Intrinsic clearance in human liver microsomes at 1 uM measured for 15 mins in presence of NADPH regenerating system measured per mg protein by LC-MS/MS analysis. Conditions: read-out: CLH. The class given is ADME, Microsome.
For series [2], the target named is Voltage-gated inwardly rectifying potassium channel KCNH2 (Homo sapiens, UniProt Q12809). Kind of series: Inhibition of hERG expressed in CHO cells assessed as inhibition of channel current at holding potential of -80 mV by QPatch assay.
Sequence of Voltage-gated inwardly rectifying potassium channel KCNH2 (Q12809 whole entry): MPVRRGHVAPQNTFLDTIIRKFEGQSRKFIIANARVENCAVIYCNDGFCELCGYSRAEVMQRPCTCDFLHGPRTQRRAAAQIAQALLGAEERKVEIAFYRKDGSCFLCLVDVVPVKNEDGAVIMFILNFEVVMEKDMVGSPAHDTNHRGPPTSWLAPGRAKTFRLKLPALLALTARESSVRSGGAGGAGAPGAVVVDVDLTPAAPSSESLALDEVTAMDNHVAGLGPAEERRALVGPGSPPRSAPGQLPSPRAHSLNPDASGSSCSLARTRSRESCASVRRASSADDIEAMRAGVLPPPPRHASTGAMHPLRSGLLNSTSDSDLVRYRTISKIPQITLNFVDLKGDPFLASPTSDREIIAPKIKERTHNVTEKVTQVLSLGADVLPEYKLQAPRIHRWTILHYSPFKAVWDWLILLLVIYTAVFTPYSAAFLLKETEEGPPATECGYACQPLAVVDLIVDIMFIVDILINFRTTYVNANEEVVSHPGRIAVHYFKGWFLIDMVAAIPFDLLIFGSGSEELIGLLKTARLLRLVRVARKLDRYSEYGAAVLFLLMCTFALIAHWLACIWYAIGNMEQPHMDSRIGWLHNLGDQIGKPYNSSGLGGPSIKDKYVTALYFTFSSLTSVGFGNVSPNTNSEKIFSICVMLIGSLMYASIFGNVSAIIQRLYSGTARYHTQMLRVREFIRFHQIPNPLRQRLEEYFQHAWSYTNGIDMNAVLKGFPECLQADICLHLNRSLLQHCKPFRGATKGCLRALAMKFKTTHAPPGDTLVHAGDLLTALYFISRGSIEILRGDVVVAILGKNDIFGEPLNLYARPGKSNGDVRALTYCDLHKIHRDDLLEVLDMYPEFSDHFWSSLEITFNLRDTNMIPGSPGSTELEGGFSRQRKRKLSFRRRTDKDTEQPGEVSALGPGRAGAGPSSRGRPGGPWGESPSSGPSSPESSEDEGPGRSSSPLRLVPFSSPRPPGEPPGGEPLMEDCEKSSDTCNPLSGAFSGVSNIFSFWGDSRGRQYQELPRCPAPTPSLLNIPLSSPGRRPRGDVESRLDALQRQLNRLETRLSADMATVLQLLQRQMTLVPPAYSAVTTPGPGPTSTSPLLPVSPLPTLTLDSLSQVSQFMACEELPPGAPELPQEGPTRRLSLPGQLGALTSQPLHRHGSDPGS
Series [3] concerns the target T1, C-C chemokine receptor type 6 (Homo sapiens, UniProt P51684).
T1 sequence (P51684 whole entry): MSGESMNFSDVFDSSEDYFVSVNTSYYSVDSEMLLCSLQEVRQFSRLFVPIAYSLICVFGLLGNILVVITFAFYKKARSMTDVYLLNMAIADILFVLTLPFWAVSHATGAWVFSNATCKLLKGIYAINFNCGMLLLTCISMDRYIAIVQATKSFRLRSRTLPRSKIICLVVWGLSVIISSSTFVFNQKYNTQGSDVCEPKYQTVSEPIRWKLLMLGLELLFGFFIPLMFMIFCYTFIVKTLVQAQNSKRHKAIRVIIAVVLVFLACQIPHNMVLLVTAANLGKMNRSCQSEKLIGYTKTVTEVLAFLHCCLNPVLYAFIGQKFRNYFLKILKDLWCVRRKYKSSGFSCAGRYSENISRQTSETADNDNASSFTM
Kind of series: Antagonist activity at human CCR6 expressed in HEK293 cells assessed as inhibition of CCL20-stimulated intracellular calcium mobilization by Fluo-8-AM based FLIPR analysis.

Series [4] can be described thus: Drug metabolism in human liver microsomes assessed as dGSH trapping by measuring reactive metabolite formation at 10 uM measured after 60 mins in presence of dGSH and NADPH regenerating system by LC-MS/MS analysis. The class given is ADME, Microsome. Conditions: 1 h.
A short description of series [5]: Cytotoxicity against human HepG2 cells assessed as reduction in cell viability incubated for 72 hrs by CellTiter-Glo assay.
Series [6] in a line: Dissociation constant, pKa of the compound by potentiometric titration based UV-Vis spectrophotometry.
Series [7] is described as follows: Lipophilicity, LogD of the compound in 1-Octanol/PBS at pH 7.4 by miniaturized shake flask method.
For another series, the system named is HepaRG. The experiment in a line: Cytotoxicity against human HepaRG cells assessed as leakage of intracellular LDH at 100 uM incubated for 24 hrs by spectrophotometry. The class given is toxicity, cell-based.

Regarding `CC(C)c1ccc([C@](O)(c2cccc(-c3noc(C(C)(O)C(F)(F)F)n3)c2)C2(C)CN(C)C2)cc1` (stereo partly specified), the microsomal CLint at […], 1 µM in series [1] is 15 µL/min/mg.

As to `CC(=O)N1CC(C)(C(O)(c2ccccc2)c2ccc(OC(F)(F)F)cc2)C1` (stereo unspecified), the IC50 in series [2] and in series [3] was above 20 µM throughout.

With `CC(C)c1ccc([C@](O)(c2cncc(N3CC[C@H](C(C)(C)O)C3)c2)C2(C)CN(C)C2)cc1`, in series [4], the Drug metabolism was below 100 pmol/mg/h.

Take `CC(C)c1ccc([C@](O)(c2cncc(N3CCCC3)c2)C2(C)CN(C)C2)cc1`: the Drug metabolism in series [4] was found to be 162 pmol/mg/h.

As for `CC(C)c1ccc([C@](O)(c2cncc(N3CC[C@H](O)C3)c2)C2(C)CN(C)C2)cc1`, in series [4], the Drug metabolism is 504 pmol/mg/h.

As for `CC(C)c1ccc([C@](O)(c2cccc(-c3noc(C4CCOCC4)n3)c2)C2(C)CN(C)C2)cc1`, the microsomal CLint at […], 1 µM in series [1] came to 26 µL/min/mg. The Drug metabolism in series [4] was determined as 167 pmol/mg/h.

Regarding `CC(C)c1ccc([C@](O)(c2cncc(N3CCCC3=O)c2)C2(C)CN(C)C2)cc1`, in series [4], the Drug metabolism was below 100 pmol/mg/h.

In the case of `CC(C)c1ccc([C@](O)(c2cncc(N3CC[C@](C)(O)C3)c2)C2(C)CN(C)C2)cc1`, the Drug metabolism in series [4] was 392 pmol/mg/h.

On to `CC(C)c1ccc([C@](O)(c2cncc(N3C[C@@H](F)[C@@H](F)C3)c2)C2(C)CN(C)C2)cc1`, for which the Drug metabolism in series [4] is below 100 pmol/mg/h.

As for `CC(C)c1ccc([C@](O)(c2cnnc(N3CCCC3)c2)C2(C)CN(C)C2)cc1`, in series [1], the microsomal CLint at […], 1 µM came to 475 µL/min/mg. The Drug metabolism in series [4] stood at 323 pmol/mg/h.

Take `CC(C)c1ccc([C@](O)(c2cccc(-c3noc(CC(C)(C)O)n3)c2)C2(C)CN(C)C2)cc1`: the microsomal CLint at […], 1 µM in series [1] stood at 20 µL/min/mg.

On to `CN1CCC(C)(C(O)(c2ccccc2)c2ccc(OC(F)(F)F)cc2)C1` (stereo unspecified), for which the IC50 in series [3] was found to be 1.44 µM.

Regarding `CCCC1(C(O)(c2ccccc2)c2ccc(OC(F)(F)F)cc2)CN(C)C1` (stereo unspecified), the IC50 in series [3] is above 20 µM.

For `CC(C)c1ccc([C@](O)(c2cncc(N3CC4CC(C3)O4)c2)C2(C)CN(C)C2)cc1`, in series [1], the microsomal CLint at […], 1 µM was found to be 20 µL/min/mg. The Drug metabolism in series [4] is below 100 pmol/mg/h.

Consider `CC(C)c1ccc([C@](O)(c2cccc(-c3noc(C4(O)CCC4)n3)c2)C2(C)CN(C)C2)cc1`, for which the microsomal CLint at […], 1 µM in series [1] came to 35 µL/min/mg.

For `CC(C)c1ccc([C@](O)(c2cncc(N3CC[C@@H](O)C3)c2)C2(C)CN(C)C2)cc1`, the Drug metabolism in series [4] was found to be 541 pmol/mg/h.

Take `CC(C)c1ccc([C@](O)(c2cnnc(N3CC4(CC4)CC3=O)c2)C2(C)CN(C)C2)cc1`: in series [1], the microsomal CLint at […], 1 µM was below 10 µL/min/mg. Also, in series [4], the Drug metabolism was below 100 pmol/mg/h.

For the compound `CN1CC(C(O)(c2ccccc2)c2ccc(OC(F)(F)F)cc2)C1` (stereo unspecified), the results for the IC50 in series [2] and in series [3] were 0.52 µM and 9.29 µM, respectively.

`CC(C)c1ccc([C@](O)(c2cncc(N3CCOCC3)c2)C2(C)CN(C)C2)cc1`: the microsomal CLint at […], 1 µM in series [1] was 138 µL/min/mg. In addition, the Drug metabolism in series [4] is 1021 pmol/mg/h.

For `CN1CC(C)(C(O)(c2ccc(OC(F)(F)F)cc2)c2cnnc(N3CCCC3)c2)C1` (racemic), the IC50 at 72 h in series [5] is above 25 µM.

Turning to `CC(C)COc1cccc(C(O)(c2ccc(OC(F)(F)F)cc2)C2(C)CN(C)C2)c1` (racemic), in series [5], the IC50 at 72 h stood at 10 µM.

`CN1CC(C)(C(O)(c2ccc(OC(F)(F)F)cc2)c2cccc(N3CCCC3)c2)C1` (racemic): in series [5], the IC50 at 72 h is 5 µM.

With `COc1cccc(C(O)(c2ccc(OC(F)(F)F)cc2)C2(C)CN(C)C2)c1` (racemic), the half-maximal inhibitory concentration (IC50) in series [2] stood at 0.22 µM. Besides, the IC50 at 72 h in series [5] is above 25 µM.

For the compound `COc1cncc(C(O)(c2ccc(OC(F)(F)F)cc2)C2(C)CN(C)C2)c1` (racemic), the IC50 at 72 h in series [5] is above 25 µM.

Consider `CN1CC(C#N)(C(O)(c2ccc(OC(F)(F)F)cc2)c2cccc(Cl)c2)C1` (racemic), for which the pKa in series [6] was determined as 6.4. In series [3], the concentration for half-maximal inhibition (IC50) worked out at 0.763 µM.

In series [6], `CN1CC(F)(C(O)(c2ccc(OC(F)(F)F)cc2)c2cccc(Cl)c2)C1` (racemic) registered a pKa of 7.9. The compound further yielded a logD in series [7] above 4.1. The half-inhibitory concentration (IC50) in series [2] was 0.19 µM.

In series [6], `CN1CC(CO)(C(O)(c2ccc(OC(F)(F)F)cc2)c2cccc(Cl)c2)C1` (racemic) yielded a pKa of 9.1. This compound also showed a logD in series [7] of 2.1. For the same compound, the IC50 came out at 0.56 µM in series [2] and 3.52 µM in series [3].

As for `CN1CC(C)(C(O)(c2ccc(OC(F)(F)F)cc2)c2ccnc(N3CCCC3)c2)C1` (racemic), in series [5], the IC50 at 72 h is 9.2 µM.

In series [6], `CN1CC(O)(C(O)(c2ccc(OC(F)(F)F)cc2)c2cccc(Cl)c2)C1` (racemic) displayed a pKa of 8.8. Further, the logD in series [7] came out at 2.7. The half-inhibitory concentration (IC50) was 1.9 µM in series [2] and 2.06 µM in series [3].

As for `CC(C)c1ccc(C(O)(c2cccc(N3CCCC3)n2)C2(C)CN(C)C2)cc1` (racemic), in series [3], the IC50 is 1.21 µM.

As to `CN1CC(C)(C(O)(c2ccc(OC(F)(F)F)cc2)c2ccccc2Cl)C1` (racemic), in series [3], the half-maximal inhibitory concentration (IC50) stood at 8.8 µM.

Regarding `CN1CC(C)(C(O)(c2ccc(Cl)cc2)c2ccc(OC(F)(F)F)cc2)C1` (racemic), the half-inhibitory concentration (IC50) at 72 h in series [5] came to 9.4 µM.

Regarding `CN1CC(C(N)=O)(C(O)(c2ccc(OC(F)(F)F)cc2)c2cccc(Cl)c2)C1` (racemic), the pKa in series [6] was found to be 8.1. Besides, the half-inhibitory concentration (IC50) in series [2] amounted to 3.3 µM; in series [3] it was 1.66 µM.

`CCOc1cncc(C(O)(c2ccc(OC(F)(F)F)cc2)C2(C)CN(C)C2)c1` (racemic): the Activity result in the series on HepaRG is reported as “Non-Toxic”. The compound further yielded a logD in series [7] of 1.9. In addition, the half-inhibitory concentration (IC50) at 72 h in series [5] was above 25 µM.

For the compound `CC(C)c1ccc(C(O)(c2cccc(-c3nc(C4CCOCC4)no3)c2)C2(C)CN(C)C2)cc1` (single isomer, unassigned), in series [1], the microsomal CLint at […], 1 µM is 68 µL/min/mg.
